From patent publication US5472951A, “Stabilizer for phospholipid vesicles” (Chiba Flour Milling Co., Ltd., priority 1992, dated 1995)

How the values were obtained:
Type in all cases: physicochemical
[1] = viscosity of vesicle dispersion on addition of calcium ion (rotating viscometer); settings: 5 mM calcium chloride
Procedure: The stability of the vesicles was evaluated as below. The precipitate of the vesicles prepared by centrifuge was dispersed again into saline by a vortex mixer. To this sample, calcium chloride (as calcium ion) was added to be 5 mM, and the viscosity of the dispersion was measured with a rotating viscometer (Vismetron VS-AK). The viscosity of 5 cp was not changed by addition of the calcium ion.
To this dispersion, calcium chloride (as calcium ion) was added to be 5 mM, and the viscosity of the dispersion was measured with a rotating viscometer (Vismetron VS-AK).
To this dispersion, calcium chloride (as calcium ion) was added to be 5 mM, and the viscosity of the dispersion was measured with a rotating viscometer (Vismetron VS-AK). The viscosity of 5 cp was not changed by addition of the calcium ion. On the contrary, the dispersion of the vesicles prepared from powdery lipid mixture not containing DACOA (DPPC:cholesterol:distearylphosphatidic acid=10:9:0.9 in molar ratio) aggregated immediately on addition of calcium ion because of negative charge on the surface of the vesicle, causing the viscosity rise up to 11 cp.
The stability of the dispersion of the DOLG-modified vesicles having adjusted particle diameters was evaluated by addition of 5 mM calcium chloride and observing the viscosity change. The viscosity was measured at 37° C. by a rotating viscometer. […] On the contrary, a dispersion of unmodified vesicles prepared from a powdery lipid mixture containing no DOLG (DPPC:cholesterol:stearic acid=7:7:2 in molar ratio) caused immediate aggregation of the vesicles on addition of calcium ion in the same manner as above because of the negative charge on the surface of the vesicle, and the viscosity increased up to 11 cp. Accordingly, the sufficient effect of the DOLG, a vesicle stabilizer of the present invention, was confirmed in inhibiting the aggregation of vesicles by calcium ion.

[2] = particle diameter of modified vesicles; settings: for average diameter: about 5 mol % modifier, ultrasonicator (Example 5 series)
[3] = dispersion stability: turbidity increase at 500 nm, standing at 25 °C for 3 days
[4] = mixed lipid vesicles, 0.2 μm filter by extruder
[5] = Table 2 / Example 8 series, 5 mol % modifier
[6] = DPPC vesicle, 5 mol % modifier (Example 8 series)
[7] = Table 1 / Example 5 series, about 5 mol % modifier

Compound | viscosity change on addition of calcium ion (in words) [1] | viscosity of the dispersion with calcium ion ([1]; Vismetron VS-AK) [cp] | average particle diameter [2, 4] [nm] | turbidity increase rate relative to unmodified DPPC vesicle dispersion (100%) [3, 5] [%] | average particle diameter [2, 6] [nm] | turbidity increase rate relative to unmodified DPPC vesicle dispersion (100%) [3, 7] [%] | average diameter ([2]; DPPC vesicle) [nm] | also measured
CCCCCCCC/C=C\CCCCCCCCNC(=O)[C@H](NC(C)=O)[C@@H](O)[C@H](O[C@@H]1O[C@H](CO)[C@@H](O)[C@H](O)[C@H]1NC(C)=O)[C@H](O)CO [DACOA, di-N-acetylchitobiose oleylamine] | not changed | 5 | 200 |  |  |  |  | 
CCCCCCCCCCCCCCCCCCNC(=O)[C@H](O)[C@@H](O)[C@H](O)[C@H](O)CO[C@H]1O[C@H](CO[C@H]2O[C@H](CO[C@H]3O[C@H](CO[C@H]4O[C@H](CO[C@H]5O[C@H](CO)[C@@H](O)[C@H](O)[C@H]5O)[C@@H](O)[C@H](O)[C@H]4O)[C@@H](O)[C@H](O)[C@H]3O)[C@@H](O)[C@H](O)[C@H]2O)[C@@H](O)[C@H](O)[C@H]1O [IHSA, Isomaltohexose stearylamide] | not changed at all | 5 | 200 |  |  |  |  | inhibition of aggregation of vesicles by calcium ion (in words) [1]: inhibited nearly completely
CCCCCCCCCCCCCCCCNC(=O)[C@H](O)[C@@H](O)[C@H](O[C@H]1O[C@H](CO)[C@@H](O[C@H]2O[C@H](CO)[C@@H](O[C@H]3O[C@H](CO)[C@@H](O[C@H]4O[C@H](CO)[C@@H](O)[C@H](O)[C@H]4O)[C@H](O)[C@H]3O)[C@H](O)[C@H]2O)[C@H](O)[C@H]1O)[C@H](O)CO [MPCA, maltopentaose cetyl amide] |  |  |  | 12.7 | 32±9 | 6.3 | 32±7 | turbidity increase rate relative to unmodified DPPC vesicle dispersion (100%) ([3]; Table 2 / Example 8 series, 5 mol % modifier, listed as MCPA): 10.3%; turbidity rise / aggregation inhibiting effect (in words) ([3]; about 5 mol % modifier): little rise in turbidity
dioctadecyl lactosyl glycerol [DOLG] | without viscosity increase |  |  |  |  |  |  | viscosity of the dispersion with calcium ion ([1]; 37 °C, shear rate 1.15 sec^-1): 5 cp

Second part, led by results:

viscosity change on addition of calcium ion (in words) [1] | viscosity of the dispersion with calcium ion ([1]; Vismetron VS-AK) [cp] | average particle diameter [2, 4] [nm] | turbidity increase rate relative to unmodified DPPC vesicle dispersion (100%) [3, 5] [%] | average particle diameter [2, 6] [nm] | turbidity increase rate relative to unmodified DPPC vesicle dispersion (100%) [3, 7] [%] | average diameter ([2]; DPPC vesicle) [nm] | Compound | also measured
 |  |  | 47.8 | 41±19 |  |  | CCCCCCCCCCCCCCCCNC(=O)[C@H](O)[C@@H](O)[C@H](O[C@H]1O[C@H](CO)[C@@H](O)[C@H](O)[C@H]1O)[C@H](O)CO [MCA, maltose cetyl amide] | increase of the turbidity depending on amount of modifier (order) ([3]; 5-25 mol %): 5 mol %>10 mol %>15 mol %>20 mol % ≤25 mol %; turbidity increase rate relative to unmodified DPPC vesicle dispersion (100%) ([3]; Table 2 / Example 8 series, 10 mol % modifier): 32.5%; turbidity increase rate relative to unmodified DPPC vesicle dispersion (100%) ([3]; Table 2 / Example 8 series, 15 mol % modifier): 19.9%; turbidity increase rate relative to unmodified DPPC vesicle dispersion (100%) ([3]; Table 2 / Example 8 series, 20 mol % modifier): 15.6%; turbidity increase rate relative to unmodified DPPC vesicle dispersion (100%) ([3]; Table 2 / Example 8 series, 25 mol % modifier): 17.2%; average particle diameter ([2]; DPPC vesicle, 10 mol % modifier (Example 8 series)): 35±13 nm; average particle diameter (in words) ([2]; DPPC vesicle, 15 mol % (MCA also 25 mol %) modifier): Nearly the same diameters; average particle diameter ([2]; DPPC vesicle, 20 mol % modifier (Example 8 series)): 36±10 nm
 |  |  |  |  | 65.4 | 38±8 | Maltopentaose dipalmitate [MPDP, reference compound] | 
